Measured values published in ChEMBL document CHEMBL4665653, “VU6005806/AZN-00016130, an advanced M positive allosteric modulator (PAM) profiled as a potential preclinical development candidate” (Bioorg Med Chem Lett, 2019).

Key:
[1] = Half life in dog; assay type: ADME, Canis lupus familiaris; details: in vivo
[2] = biological target: D(1A) dopamine receptor (Homo sapiens) (UniProt P21728); experiment: Displacement of [3H]-SCH 23390 from recombinant full length human dopamine D1 receptor expressed in CHO cells assessed as residual binding level for radioligand at 10 uM after 120 mins by radiometric scintillation analysis relative to control; assay type: cell-based
Chain of D(1A) dopamine receptor (Homo sapiens) (P21728 whole entry): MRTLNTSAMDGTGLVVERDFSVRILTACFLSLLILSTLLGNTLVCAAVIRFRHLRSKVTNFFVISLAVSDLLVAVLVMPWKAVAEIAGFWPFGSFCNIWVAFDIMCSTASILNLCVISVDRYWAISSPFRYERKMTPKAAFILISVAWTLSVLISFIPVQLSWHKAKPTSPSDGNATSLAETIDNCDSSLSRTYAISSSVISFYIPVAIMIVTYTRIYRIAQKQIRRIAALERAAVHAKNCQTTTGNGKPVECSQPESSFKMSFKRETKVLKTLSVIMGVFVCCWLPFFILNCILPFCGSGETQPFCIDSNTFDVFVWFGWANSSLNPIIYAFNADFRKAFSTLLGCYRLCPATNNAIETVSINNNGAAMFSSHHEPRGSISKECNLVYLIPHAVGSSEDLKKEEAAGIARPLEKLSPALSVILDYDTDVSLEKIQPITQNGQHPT

Structure (SMILES): COc1nnc2sc(C(=O)NC3CN(c4ncc(C(F)(F)F)cn4)C3)c(N)c2c1C
- half-life [1]: 60 min
- Activity [2]: > 50%
